The values that follow come from ChEMBL document CHEMBL5038609, “A camptothecin-based, albumin-binding prodrug enhances efficacy and safety in vivo” (Eur J Med Chem, 2021).

Data set [1] concerns A549. In words: Antiproliferative activity against human A549 cells assessed as reduction on cell proliferation measured after 72 hrs by MTT assay. It counts as functional, cell-based. (In general: Formazan colour is commonly taken as a measure of viable cells.)
The subject of data set [2] is HCT-116. In words: Antiproliferative activity against human HCT-116 cells assessed as reduction on cell proliferation measured after 72 hrs by MTT assay. It counts as functional, cell-based.
Data set [3] has as its system MCF7. In words: Antiproliferative activity against human MCF7 cells assessed as reduction on cell proliferation measured after 72 hrs by MTT assay. It counts as functional, cell-based.
Data set [4] deals with T1, albumin (Homo sapiens, UniProt P02768). In words: Protein binding in human serum albumin measured after 0.25 mins by HPLC analysis. Conditions: read-out: PPB (converted). It counts as ADME, cell-free.
Data set [5] deals with T1, albumin. In words: Protein binding in human serum albumin measured after 8 mins by HPLC analysis. It counts as ADME, cell-free. Conditions: read-out: PPB (converted).
A short description of data set [6]: Toxicity in female BALB/c mouse assessed as body weight loss at 1 to 10 mg/kg, iv administered once daily for 14 consecutive days. It counts as organism-based. Particulars: in vivo, 336 h, dose 1-10 mg/kg, time 14 day.
Data set [7] in a line: Plasma protein binding in male Sprague-Dawley rat measured after 0.25 mins by HPLC analysis. It counts as ADME, cell-free. Conditions: read-out: PPB (converted).
Data set [8] can be described thus: Plasma protein binding in female BALB/c mouse measured after 0.25 mins by HPLC analysis. The format is ADME, cell-free. Particulars: read-out: PPB (converted).
Data set [9] can be described thus: Plasma protein binding in female BALB/c mouse measured after 2 mins by HPLC analysis. It counts as ADME, cell-free. Conditions: read-out: PPB (converted).
Data set [10] is described as follows: Plasma protein binding in male Sprague-Dawley rat measured after 2 mins by HPLC analysis. The format is ADME, cell-free. Particulars: read-out: PPB (converted).
A short description of data set [11]: Plasma protein binding in human measured after 0.25 mins by HPLC analysis. It counts as ADME, cell-free. Particulars: read-out: PPB (converted).
Data set [12] can be described thus: Plasma protein binding in human measured after 2 mins by HPLC analysis. It counts as ADME, cell-free. Particulars: read-out: PPB (converted).
The subject of data set [13] is HepG2. In words: Antiproliferative activity against human HepG2 cells assessed as reduction on cell proliferation measured after 72 hrs by MTT assay. The format is functional, cell-based.
For data set [14], the system named is 4T1. Description: Antiproliferative activity against mouse 4T1 cells assessed as reduction on cell proliferation measured after 72 hrs by MTT assay. It counts as functional, cell-based.
Data set [15] relates to 4T1. Description: Antitumor activity against mouse 4T1 cells implanted in female BALB/c mouse assessed as inhibition of tumor growth at 0.6 mg/kg, iv administered twice a week for 2 weeks measured on day 18. The format is functional. Further details: scale not given: the % may be the effect or the level left. Particulars: time 18 day.
Data set [16] concerns 4T1. Description: Antitumor activity against mouse 4T1 cells implanted in female BALB/c mouse assessed as inhibition of tumor growth at 1.2 mg/kg, iv administered twice a week for 2 weeks measured on day 18. The format is functional. Set-up: scale not given: the % may be the effect or the level left. Particulars: time 18 day.
Data set [17] is described as follows: Toxicity in mouse 4T1 cells implanted in female BALB/c mouse assessed as pathological changes in heart at 0.6 to 1.2 mg/kg, iv by H and E staining based analysis. It counts as organism-based. Conditions: in vivo, dose 0.6-1.2 mg/kg.
Data set [18] is described as follows: Toxicity in mouse 4T1 cells implanted in female BALB/c mouse assessed as pathological changes in kidney at 0.6 to 1.2 mg/kg, iv by H and E staining based analysis. It counts as organism-based. Particulars: in vivo, dose 0.6-1.2 mg/kg.
Data set [19] in a line: Toxicity in mouse 4T1 cells implanted in female BALB/c mouse assessed as pathological changes in liver at 0.6 to 1.2 mg/kg, iv by H and E staining based analysis. It counts as organism-based. Conditions: in vivo, dose 0.6-1.2 mg/kg.
Data set [20] is described as follows: Toxicity in mouse 4T1 cells implanted in female BALB/c mouse assessed as pathological changes in lung at 0.6 to 1.2 mg/kg, iv by H and E staining based analysis. The format is organism-based. Conditions: in vivo, dose 0.6-1.2 mg/kg.
A short description of data set [21]: Toxicity in mouse 4T1 cells implanted in female BALB/c mouse assessed as pathological changes in spleen at 0.6 to 1.2 mg/kg, iv by H and E staining based analysis. It counts as organism-based. Conditions: in vivo, dose 0.6-1.2 mg/kg.
Data set [22] deals with 4T1. In words: Antitumor activity against mouse 4T1 cells implanted in female BALB/c mouse assessed as tumor cell apoptosis at 0.6 to 1.2 mg/kg, iv by TUNEL staining based fluorescence assay. The format is functional, organism-based. Conditions: dose 0.6-1.2 mg/kg.
The subject of data set [23] is 4T1. Description: Antitumor activity against mouse 4T1 cells implanted in female BALB/c mouse assessed as inhibition of tumor growth at 0.6 to 1.2 mg/kg, iv by Ki67 staining based assay. Particulars: dose 0.6-1.2 mg/kg. It counts as functional, organism-based.
The nature of data set [24]: Drug distribution in mouse 4T1 cells implanted in female BALB/c mouse assessed as fold change in tumor at 1.2 mg/kg, iv measured after 2 hrs by fluorescence detector. It counts as ADME, organism-based, Neoplasm. Conditions: in vivo.
A short description of data set [25]: Drug distribution in mouse 4T1 cells implanted in female BALB/c mouse assessed as fold change in tumor at 1.2 mg/kg, iv measured after 6 hrs by fluorescence detector. The format is ADME, organism-based, Neoplasm. Particulars: in vivo.
A short description of data set [26]: Drug distribution in mouse 4T1 cells implanted in female BALB/c mouse assessed as fold change in tumor at 1.2 mg/kg, iv measured after 24 hrs by fluorescence detector. The format is ADME, organism-based, Neoplasm. Conditions: in vivo.
The subject of data set [27] is A549. Description: Antiproliferative activity against human A549 cells assessed as reduction on cell proliferation in presence of beta-glucuronidase measured after 72 hrs by MTT assay. The format is functional, cell-based.
The nature of data set [28]: Drug distribution in mouse 4T1 cells implanted in female BALB/c mouse assessed as fold change in tumor at 1.2 mg/kg, iv measured after 48 hrs by fluorescence detector. The format is ADME, organism-based, Neoplasm. Particulars: in vivo.
Data set [29] is described as follows: Toxicity in iv dosed female BALB/c mouse assessed as maximum tolerated dose administered once daily for 14 consecutive days. It counts as organism-based. Particulars: in vivo, time 14 day.
The nature of data set [30]: Drug accumulation in mouse 4T1 cells implanted female BALB/c mouse tumor at 1.2 mg/kg, iv after 6 hrs by fluorescence detector. It counts as ADME, organism-based, Neoplasm. Conditions: in vivo.
The test system of data set [31] is HepG2. Description: Antiproliferative activity against human HepG2 cells assessed as reduction on cell proliferation in presence of beta-glucuronidase measured after 72 hrs by MTT assay. The format is functional, cell-based.
In data set [32] the test system is 4T1. Description: Antiproliferative activity against mouse 4T1 cells assessed as reduction on cell proliferation in presence of beta-glucuronidase measured after 72 hrs by MTT assay. The format is functional, cell-based.
Data set [33] has as its system HCT-116. In words: Antiproliferative activity against human HCT-116 cells assessed as reduction on cell proliferation in presence of beta-glucuronidase measured after 72 hrs by MTT assay. The format is functional, cell-based.
Data set [34] relates to MCF7. Description: Antiproliferative activity against human MCF7 cells assessed as reduction on cell proliferation in presence of beta-glucuronidase measured after 72 hrs by MTT assay. The format is functional, cell-based.
Data set [35] deals with 4T1. In words: Antitumor activity against mouse 4T1 cells implanted in female BALB/c mouse assessed as reduction on tumor volume at 0.6 to 1.2 mg/kg, iv administered twice a week for 2 weeks. Conditions: dose 0.6-1.2 mg/kg. It counts as functional, organism-based.
Data set [36] relates to Mus musculus. In words: Antitumor activity against mouse 4T1 cells implanted in female BALB/c mouse assessed as increase in body weight at 0.6 to 1.2 mg/kg, iv administered twice a week for 2 weeks. The format is functional, organism-based. Particulars: dose 0.6-1.2 mg/kg.
The nature of data set [37]: Drug accumulation in mouse 4T1 cells implanted female BALB/c mouse lung at 0.5 mg/kg, iv by fluorescence detector. The format is ADME, organism-based. Conditions: in vivo.
A short description of data set [38]: Toxicity in female BALB/c mouse assessed as body weight loss at 0.2 to 1.2 mg/kg, iv administered once daily for 14 consecutive days. The format is organism-based. Conditions: in vivo, 336 h, dose 0.2-1.2 mg/kg, time 14 day.
Data set [39] relates to 4T1. Description: Antitumor activity against mouse 4T1 cells implanted in female BALB/c mouse assessed as inhibition of tumor growth at 0.5 mg/kg, iv administered twice a week for 2 weeks measured on day 18. It counts as functional. Conditions: time 18 day. Further details: scale not given: the % may be the effect or the level left.
A short description of data set [40]: Drug accumulation in mouse 4T1 cells implanted female BALB/c mouse kidney at 0.5 mg/kg, iv by fluorescence detector. The format is ADME, organism-based. Conditions: in vivo.
Data set [41] deals with Mus musculus. In words: Antitumor activity against mouse 4T1 cells implanted in female BALB/c mouse assessed as increase in body weight at 0.5 mg/kg, iv administered twice a week for 2 weeks. It counts as functional, organism-based.
The subject of data set [42] is 4T1. Description: Antitumor activity against mouse 4T1 cells implanted in female BALB/c mouse assessed as reduction on tumor volume at 0.5 mg/kg, iv administered twice a week for 2 weeks. It counts as functional, organism-based.
Data set [43] in a line: Drug accumulation in mouse 4T1 cells implanted female BALB/c mouse tumor at 0.5 mg/kg, iv after 2 hrs by fluorescence detector. The format is ADME, organism-based, Neoplasm. Particulars: in vivo.

Active and inactive are the calls of the source. No cut-off for these calls is given here.

T1 sequence (P02768 whole entry): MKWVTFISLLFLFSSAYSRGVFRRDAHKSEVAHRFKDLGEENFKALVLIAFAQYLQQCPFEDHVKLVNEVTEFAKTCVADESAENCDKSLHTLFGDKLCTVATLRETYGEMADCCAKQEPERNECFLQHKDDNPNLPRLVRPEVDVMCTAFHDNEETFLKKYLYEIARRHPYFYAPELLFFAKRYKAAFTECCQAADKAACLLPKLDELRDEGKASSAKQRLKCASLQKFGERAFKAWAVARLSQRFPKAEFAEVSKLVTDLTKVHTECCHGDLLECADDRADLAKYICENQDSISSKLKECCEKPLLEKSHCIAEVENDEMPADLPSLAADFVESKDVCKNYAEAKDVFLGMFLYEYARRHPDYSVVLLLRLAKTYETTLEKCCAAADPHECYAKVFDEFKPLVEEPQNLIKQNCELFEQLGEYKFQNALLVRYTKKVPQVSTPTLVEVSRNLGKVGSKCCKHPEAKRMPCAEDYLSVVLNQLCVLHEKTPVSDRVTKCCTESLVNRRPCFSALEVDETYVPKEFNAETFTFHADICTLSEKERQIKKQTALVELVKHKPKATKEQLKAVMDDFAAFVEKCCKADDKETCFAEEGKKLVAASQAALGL

What is called MTD is the highest dose tested that stayed within the study's limit of toxicity. As for `CC[C@@]1(O)C(=O)OCc2c1cc1n(c2=O)Cc2c-1nc1cc3c(cc1c2-c1cc[n+](Cc2ccc(O[C@@H]4O[C@@H](C(=O)O)[C@@H](O)[C@H](O)[C@H]4O)c(NC(=O)CCCn4cc(CNC(=O)CCCCCN5C(=O)C=CC5=O)nn4)c2)cc1)OCO3.O=C([O-])C(F)(F)F`, the result in the data set with A549 [1], with HCT-116 [2], with MCF7 [3], in the data set on HepG2 [13], in the data set with 4T1 [14] and in the data set on 4T1 [22] was Active. Also, the outcome in the data set with 4T1 [23], in the data set with A549 [27], in the data set with HepG2 [31], with 4T1 [32], in the data set with HCT-116 [33] and in the data set on MCF7 [34] was Active. The outcome in the data set on 4T1 [35] and with Mus musculus [36] was Active. For the same compound, the fraction unbound at 15 s on albumin [4] was 0.0679; in [7] it was 0.0224; in data set [8] it was 0.0723; in data set [11] it was 0.034. For the same compound, the fraction unbound at 8 min at albumin [5] is 0.015. Besides, the Activity in data set [6] was 10%; in the data set on 4T1 [15], 56%; with 4T1 [16], 77%; in [17], “Non-Toxic”; in data set [18], “Non-Toxic”; in data set [19], “Non-Toxic”. The Activity result in data set [20] and in [21] was “Non-Toxic” each time. In addition, the figures for the fraction unbound at 2 min in [9], in data set [10] and in data set [12] were 0.0512, 0.0188 and 0.0291, respectively. The “fold change (FC)” value came to 9 in data set [24], 18 in data set [25], 16 in [26] and 14 in data set [28]. Further, the MTD at 336 h in [29] is 2.5 mg/kg. This compound also gave a Drug uptake in [30] of 17.34%.

On to `CC[C@@]1(O)C(=O)OCc2c1cc1n(c2=O)Cc2c-1nc1cc3c(cc1c2-c1ccncc1)OCO3`, for which the Drug uptake result is recorded as “Active” in [37], “Active” in [40] and 1.09% in data set [43]. Besides, the values for the Activity (in data set [38]; with 4T1 [39]) were 10% and 27%, respectively. Moreover, the MTD at 336 h in data set [29] is 0.4 mg/kg. In addition, the result in the data set with Mus musculus [41] and with 4T1 [42] was Active.
